Results reported in patent publication US20100004284A1, “Novel Heterocyclic Compounds as Positive Allosteric Modulators of Metabotropic Glutamate Receptors” (ADDEX PHARMA SA, priority 2005, published 2010).

Experiments:
rat mGluR5 = molecular target: T1, rat mGluR5 (Rattus norvegicus, UniProt P31424); assay: mGluR5 assay on HEK-expressing rat mGluR5 (fluorescent cell based Ca2+ mobilization assay); conditions: for activation of rat mGluR5 receptors without co-addition of glutamate or mGluR5 agonist: HEK-rat mGluR5 cell line; for EC50: HEK-293 cells stably expressing rat mGluR5, no co-addition of glutamate, mean of at least three independent experiments in duplicate, read-out: Ca++ Flux (mean EC50)
T1 construct: expressed in transfected cells
T1 sequence (P31424 21-1171 isoform P31424-2 limits assumed): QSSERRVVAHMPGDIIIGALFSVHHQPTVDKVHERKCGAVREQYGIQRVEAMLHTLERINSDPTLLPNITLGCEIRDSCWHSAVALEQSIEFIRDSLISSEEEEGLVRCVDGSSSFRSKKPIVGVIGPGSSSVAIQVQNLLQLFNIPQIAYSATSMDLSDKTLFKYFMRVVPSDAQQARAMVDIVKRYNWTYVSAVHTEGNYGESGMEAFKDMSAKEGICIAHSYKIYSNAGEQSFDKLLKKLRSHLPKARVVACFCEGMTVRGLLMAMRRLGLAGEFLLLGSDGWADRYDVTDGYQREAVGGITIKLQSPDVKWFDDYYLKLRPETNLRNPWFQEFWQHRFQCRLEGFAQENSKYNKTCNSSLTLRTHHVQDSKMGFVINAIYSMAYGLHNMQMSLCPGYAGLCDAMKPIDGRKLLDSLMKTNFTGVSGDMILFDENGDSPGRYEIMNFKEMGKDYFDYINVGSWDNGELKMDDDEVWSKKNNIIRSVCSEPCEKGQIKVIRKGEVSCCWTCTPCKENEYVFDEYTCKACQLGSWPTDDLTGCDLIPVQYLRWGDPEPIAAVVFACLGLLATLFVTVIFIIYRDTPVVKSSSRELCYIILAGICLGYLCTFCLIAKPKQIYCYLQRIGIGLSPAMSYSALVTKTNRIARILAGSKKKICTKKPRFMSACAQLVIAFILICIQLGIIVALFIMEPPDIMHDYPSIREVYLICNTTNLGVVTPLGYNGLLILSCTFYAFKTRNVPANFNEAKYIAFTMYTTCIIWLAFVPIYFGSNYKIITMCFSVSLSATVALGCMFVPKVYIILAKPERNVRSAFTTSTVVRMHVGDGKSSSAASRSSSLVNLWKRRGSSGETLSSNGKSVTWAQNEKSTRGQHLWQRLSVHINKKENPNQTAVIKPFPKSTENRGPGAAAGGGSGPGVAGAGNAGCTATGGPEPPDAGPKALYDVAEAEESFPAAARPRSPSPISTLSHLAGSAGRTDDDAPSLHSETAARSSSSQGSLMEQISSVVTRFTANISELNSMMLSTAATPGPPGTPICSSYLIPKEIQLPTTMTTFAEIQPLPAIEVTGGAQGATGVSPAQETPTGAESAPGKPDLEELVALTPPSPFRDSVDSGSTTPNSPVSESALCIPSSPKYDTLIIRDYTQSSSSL
Description: Positive functional expression of HEK-293 cells stably expressing rat mGluR5 receptor was determined by measuring intracellular Ca^2+ changes using a Fluorometric Imaging Plate Reader (FLIPR, Molecular Devices, Sunnyvale, Calif.) in response to glutamate or selective known mGluR5 agonists and antagonists. Rat mGluR5RT-PCR products in HEK-293 cells were sequenced and found 100% identical to rat mGluR5Genbank reference sequence (NM_017012). HEK-293 cells expressing rmGluR5 were maintained in media containing DMEM, dialyzed Fetal Bovine Serum (10%), Glutamax™ (2 mM), Penicillin (100 units/ml), Streptomycin (100 μg/ml), Geneticin (100 μg/ml) and Hygromycin-B (40 μg/ml) at 37° C./5% CO2.
After one day of incubation, cells were washed with assay buffer containing: 142 mM NaCl, 6 mM KCl, 1 mM […], 1 mM CaCl2, 20 mM HEPES, 1 g/L glucose, 0.125 mM sulfinpyrazone, pH 7.4. After 60 min of loading with 4 uM Fluo-4 (TefLabs, Austin, Tex.), the cells were washed three times with 50 μl of PBS Buffer and resuspended in 45 μl of assay Buffer. The plates were then transferred to a Fluorometric Imaging Plate Reader (FLIPR, Molecular Devices, Sunnyvale, Calif.) for the assessment of intracellular calcium flux. After monitoring the baseline fluorescence for 10 seconds, increasing concentrations of representative compound (from 0.01 to 60 μM) of the present invention diluted in Assay Buffer (15 μl of 4× dilutions) was added to the cell. The final DMSO concentration in the assay was 0.3%. In each experiment, fluorescence was then monitored as a function of time for 3 minutes and the data analyzed using Microsoft Excel and GraphPad Prism. Each data point was also measured two times.
Under these experimental conditions, this HEK-rat mGluR5 cell line is able to directly detect positive allosteric modulators without the need of co-addition of glutamate or mGluR5 agonist.
The concentration-response curves of representative compounds of the present invention were generated using the Prism GraphPad software (Graph Pad Inc, San Diego, USA). The curves were fitted to a four-parameter logistic equation:
(Y=Bottom+(Top−Bottom)/(1+10̂((Log EC50−X)*Hill Slope)
allowing determination of EC50 values.
The Table 5 below represents the mean EC50 obtained from at least three independent experiments of selected molecules performed in duplicate.

mGluR5 = molecular target: T2, mGluR5 (Rattus norvegicus, UniProt P31424); conditions: cited from earlier work
T2 construct: positive allosteric modulators of mGluR5 receptors in native preparations; endogenous in cells; host or cells: primary cortical astrocytes from Sprague-Dawley rat embryos (E16-19)
T2 sequence (P31424 21-1203): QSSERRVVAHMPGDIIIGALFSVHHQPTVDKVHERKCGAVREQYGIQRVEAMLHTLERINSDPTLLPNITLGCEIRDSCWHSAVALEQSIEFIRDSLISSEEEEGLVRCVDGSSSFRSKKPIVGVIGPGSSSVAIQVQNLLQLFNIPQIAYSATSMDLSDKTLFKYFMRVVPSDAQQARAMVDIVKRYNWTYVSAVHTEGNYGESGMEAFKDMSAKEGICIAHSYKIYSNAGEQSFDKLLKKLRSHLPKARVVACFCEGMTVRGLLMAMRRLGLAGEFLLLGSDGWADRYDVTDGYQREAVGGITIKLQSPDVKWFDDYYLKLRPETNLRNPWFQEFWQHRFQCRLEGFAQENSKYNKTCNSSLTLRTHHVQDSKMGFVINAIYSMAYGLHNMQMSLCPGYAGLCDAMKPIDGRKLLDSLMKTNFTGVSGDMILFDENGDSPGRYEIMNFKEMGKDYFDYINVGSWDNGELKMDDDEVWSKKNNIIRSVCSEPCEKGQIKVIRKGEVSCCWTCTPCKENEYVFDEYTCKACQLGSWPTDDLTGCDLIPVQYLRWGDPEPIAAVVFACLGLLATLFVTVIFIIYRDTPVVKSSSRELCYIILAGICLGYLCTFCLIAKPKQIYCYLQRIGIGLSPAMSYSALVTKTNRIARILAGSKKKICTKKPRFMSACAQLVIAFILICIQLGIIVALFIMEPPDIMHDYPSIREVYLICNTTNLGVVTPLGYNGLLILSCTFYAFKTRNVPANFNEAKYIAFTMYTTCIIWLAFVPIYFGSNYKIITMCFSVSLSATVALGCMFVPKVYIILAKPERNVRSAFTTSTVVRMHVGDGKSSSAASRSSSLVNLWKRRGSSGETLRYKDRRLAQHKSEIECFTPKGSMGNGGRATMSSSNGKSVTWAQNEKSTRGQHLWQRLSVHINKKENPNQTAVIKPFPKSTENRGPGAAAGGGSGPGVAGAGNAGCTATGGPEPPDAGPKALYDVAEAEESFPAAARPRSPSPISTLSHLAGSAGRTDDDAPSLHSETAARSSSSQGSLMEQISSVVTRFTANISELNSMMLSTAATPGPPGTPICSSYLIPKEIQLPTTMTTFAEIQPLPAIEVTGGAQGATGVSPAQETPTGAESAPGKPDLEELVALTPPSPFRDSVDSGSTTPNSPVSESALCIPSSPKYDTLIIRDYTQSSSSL

EC50 (rat mGluR5)	Compound	other results
–	N#Cc1cccc(C(=O)Nc2cc(-c3ccccc3)nn2-c2ccccc2)c1 [CDPPB, reference compound]	activation of rat mGluR5 receptors without co-addition of glutamate or mGluR5 agonist (rat mGluR5): activating; activity in rat cortical astrocytes culture in the absence of added glutamate (mGluR5): inactive
–	O=C(Nc1ccc(Cl)cc1CN1C(=O)c2ccccc2C1=O)c1ccccc1O [CPPHA, reference compound]	activation of rat mGluR5 receptors without co-addition of glutamate or mGluR5 agonist (rat mGluR5): activating; activity in rat cortical astrocytes culture in the absence of added glutamate (mGluR5): inactive
–	Fc1cccc(/C=N/N=C/c2cccc(F)c2)c1 [DFB, reference compound]	activation of rat mGluR5 receptors without co-addition of glutamate or mGluR5 agonist (rat mGluR5): activating; activity in rat cortical astrocytes culture in the absence of added glutamate (mGluR5): inactive
< 1000 nM	O=C(c1ccc(F)c(F)c1)N1CCC[C@H](c2nc(Cc3ccc(F)cc3)no2)C1 [Example 2, (3,4-Difluoro-phenyl)-{(S)-3-[3-(4-fluoro-benzyl)-[1,2,4]oxadiazol-5-yl]-piperidin-1-yl}-methanone]	–
< 1000 nM	O=C(c1ccc(F)c(F)c1)N1CCC[C@H](c2noc(Cc3ccc(F)cc3)n2)C1 [Example 3, (3,4-Difluoro-phenyl)-{(S)-3-[5-(4-fluoro-benzyl)-[1,2,4]oxadiazol-3-yl]-piperidin-1-yl}-methanone]	–
< 1000 nM	O=C(c1ccc(F)cc1)N1CCC[C@H](c2noc(Cc3ccc(F)cc3)n2)C1 [Example 4, {(S)-3-[5-(4-Fluoro-benzyl)-[1,2,4]oxadiazol-3-yl]-piperidin-1-yl}-(4-fluoro-phenyl)-methanone]	–
1000 to 10000 nM	C[C@@H](c1ccccc1)c1nc([C@H]2CCCN(C(=O)c3ccc(F)cc3)C2)no1 [Example 5, (4-Fluoro-phenyl)-{(S)-3-[5-((S)-1-phenyl-ethyl)-[1,2,4]oxadiazol-3-yl]-piperidin-1-yl}-methanone]	–
> 10000 nM	C[C@H](c1ccccc1)c1nc([C@H]2CCCN(C(=O)c3ccc(F)cc3)C2)no1 [Example 6, (4-Fluoro-phenyl)-{(S)-3-[5-((R)-1-phenyl-ethyl)-[1,2,4]oxadiazol-3-yl]-piperidin-1-yl}-methanone]	–
< 1000 nM	O=C(c1ccc(F)cc1)N1CCC[C@H](c2noc(Cc3ccccc3)n2)C1 [Example 7, [(S)-3-(5-Benzyl-[1,2,4]oxadiazol-3-yl)-piperidin-1-yl]-(4-fluoro-phenyl)-methanone]	melting point: 75 °C
> 10000 nM	O=C(c1ccc(F)cc1)N1CCC[C@H](c2noc([C@@H](O)c3ccccc3)n2)C1 [Example 8, (4-Fluoro-phenyl)-{(S)-3-[5-((S)-hydroxy-phenyl-methyl)-[1,2,4]oxadiazol-3-yl]-piperidin-1-yl}-methanone]	melting point: 168 to 172 °C
1000 to 10000 nM	O=C(c1ccc(F)cc1)N1CCC[C@H](c2noc([C@H](O)c3ccccc3)n2)C1 [Example 9, (4-Fluoro-phenyl)-{(S)-3-[5-((R)-hydroxy-phenyl-methyl)-[1,2,4]oxadiazol-3-yl]-piperidin-1-yl}-methanone]	–
1000 to 10000 nM	O=C(c1ccc(F)cc1)N1CCC[C@H](c2noc(CCc3ccccc3)n2)C1 [Example 10, (4-Fluoro-phenyl)-[(S)-3-(5-phenethyl-[1,2,4]oxadiazol-3-yl)-piperidin-1-yl]-methanone]	–
1000 to 10000 nM	O=C(c1ccccc1)c1nc([C@H]2CCCN(C(=O)c3ccc(F)cc3)C2)no1 [Example 11, {3-[(S)-1-(4-Fluoro-benzoyl)-piperidin-3-yl]-[1,2,4]oxadiazol-5-yl}-phenyl-methanone]	melting point: 80 to 83 °C
1000 to 10000 nM	O=C(c1ccc(F)cc1)N1CCC[C@H](c2noc(Nc3ccccc3)n2)C1 [Example 12, (4-Fluoro-phenyl)-[(S)-3-(5-phenylamino-[1,2,4]oxadiazol-3-yl)-piperidin-1-yl]-methanone]	–
1000 to 10000 nM	O=C(c1ccc(F)cc1)N1CCC[C@H](c2noc(NCc3ccc(F)cc3)n2)C1 [Example 13, {(S)-3-[5-(4-Fluoro-benzylamino)-[1,2,4]oxadiazol-3-yl]-piperidin-1-yl}-(4-fluoro-phenyl)-methanone]	–
< 1000 nM	O=C(c1ccc(F)cc1)N1CCC[C@H](n2nnc(Cc3ccccc3)n2)C1 [Example 14, [(S)-3-(5-Benzyl-tetrazol-2-yl)-piperidin-1-yl]-(4-fluoro-phenyl)-methanone]	–
1000 to 10000 nM	O=C(c1ccc(F)cc1)N1CCCC(c2nc(Oc3ccc(F)cc3)no2)C1 (centres unmarked) [Example 15, {3-[3-(4-Fluoro-phenoxy)-[1,2,4]oxadiazol-5-yl]-piperidin-1-yl}-(4-fluoro-phenyl)-methanone]	–
< 1000 nM	O=C(c1ccc(F)cc1)N1CCCC(c2nc(Oc3ccccc3)no2)C1 (centres unmarked) [Example 16, (4-Fluoro-phenyl)-[3-(3-phenoxy-[1,2,4]oxadiazol-5-yl)-piperidin-1-yl]-methanone]	melting point: 96 to 100 °C
< 1000 nM	O=C(c1ccc(F)nc1)N1CCC[C@H](c2nc(Oc3ccccc3)no2)C1 [Example 17, (6-Fluoro-pyridin-3-yl)-[(S)-3-(3-phenoxy-[1,2,4]oxadiazol-5-yl)-piperidin-1-yl]-methanone]	–
1000 to 10000 nM	O=C(c1ccc(F)nc1)N1CCC[C@H](c2nc(Oc3ccccc3F)no2)C1 [Example 18, {(S)-3-[3-(2-Fluoro-phenoxy)-[1,2,4]oxadiazol-5-yl]-piperidin-1-yl}-(6-fluoro-pyridin-3-yl)-methanone]	–
< 1000 nM	O=C(c1ccc(F)nc1)N1CCC[C@H](c2nc(Oc3cccc(F)c3)no2)C1 [Example 19, {(S)-3-[3-(3-Fluoro-phenoxy)-[1,2,4]oxadiazol-5-yl]-piperidin-1-yl}-(6-fluoro-pyridin-3-yl)-methanone]	–
> 10000 nM	O=C(c1ccc(F)cc1)N1CCC[C@H](c2nc(Sc3ccccc3)no2)C1 [Example 20, (4-Fluoro-phenyl)-[(S)-3-(3-phenylsulfanyl-[1,2,4]oxadiazol-5-yl)-piperidin-1-yl]-methanone]	–
< 1000 nM	O=C(c1ccc(F)cc1)N1CCCC(c2nc(Oc3cccc(F)c3)no2)C1 (centres unmarked) [Example 21, {3-[3-(3-Fluoro-phenoxy)-[1,2,4]oxadiazol-5-yl]-piperidin-1-yl}-(4-fluoro-phenyl)-methanone]	melting point: 99 to 102 °C
1000 to 10000 nM	O=C(c1ccncc1F)N1CCC[C@H](c2nc(Oc3ccccc3)no2)C1 [Example 22, (3-Fluoro-pyridin-4-yl)-[(S)-3-(3-phenoxy-[1,2,4]oxadiazol-5-yl)-piperidin-1-yl]-methanone]	–
